Reference: paper PMC9396645 (Frontiers in Chemistry, 2022)

Columns and labels:
[1] = test system: C4-2 cells; assay: Internalization efficiency / specific cell uptake in C4-2 cells; type: cell-based, human; conditions: ^68Ga-labeled compounds 30 nM, 45 min, 37°C, specificity by 2-PMPA 500 μM, mean ± SD (n = 3)
[2] = test system: C4-2 tumor bearing BALB/c nu/nu mice; assay: Biodistribution (organ distribution) in C4-2 tumor-bearing mice; type: in vivo, mouse
Text: (§1) Athymic male nude mice (BALB/c nu/nu) were purchased from Charles River at 4‒5 weeks of age (19–23 g). The mice were kept under pathogen-free conditions for 1 week prior to the study. The mice had free access to water and food and were housed with a 12-h/12-h light/dark cycle. The xenografts required for positron emission tomography (PET) imaging and biodistribution studies were obtained by inoculation of 5 × 10^7 C4-2 cells in 50% Matrigel in Opti-MEM I (1 ×) medium. For this purpose, the mice were anesthetized with 2% sevoflurane, and inoculation was performed subcutaneously on the right trunk. When the size of the tumor was approximately 1 cm^3, the studies were performed.
Based on the results of the PET imaging, ^68Ga-CA028 and ^68Ga-CA030, the most promising compounds, were chosen for biodistribution studies in C4-2 tumor-bearing mice. The labeled compound (0.05 nmol, 20 MBq) was administered to the mice via tail vein injection. Animals were sacrificed and organs were harvested at the following time points: 20 min, 1, 2, and 4 h p.i. The organs were dissected and weighed, the activity was measured with a γ-counter, and the % ID/g was calculated.

[3] = test system: C4-2 tumor bearing BALB/c nu/nu mice; assay: Small-animal PET imaging in C4-2 tumor bearing mice; type: in vivo, mouse; conditions: for mSUV Bladder / mSUV Heart / mSUV Kidneys / mSUV Liver / mSUV Muscle / mSUV Tumor: small-animal PET, C4-2 xenograft mouse
Text: as §1
For small-animal PET imaging, the different ^68Ga-labeled PSMA ligands (0.5 nmol, 20 MBq in approximately 100 µL 0.9% saline) were injected into C4-2 tumor bearing mice. The dynamic PET was recorded in a small animal PET scanner (Siemens Inveon D-PET). The standardized uptake values (SUVs) were obtained from conventional (non-dynamic) PET images. The formula for the SUV was SUV=activity in ROI (Bq/ml) × animal weight (g)/injected dose(Bq)
Manual delineation of the respective appropriate whole organ (heart, kidneys, bladder, tumor, with an approximate volume of 100–500 µL) yielded the volumes of interest (VOIs). For this purpose, whole organs or parts of the organ/tissue (liver and muscle) were used. The images were reconstructed based on the procedure: OSEM 3D/SP MAP with 16 subsets, two iterations, and an image x-y size: 256, image z size: 161. The data were not modified with a post-processing filter. Analysis of the images and time-activity curves (TACs) was conducted on the Inveon™ Acquisition Workplace (IAW) from Siemens IRW 4.1. […] […] The mean SUVs were plotted over time in order to compare the different radiotracers.

[4] = test system: prostate cancer patients; assay: PSMA-PET/CT of prostate cancer patients; type: in vivo, human; conditions: patient PET/CT, 20 nmol
Method: Diagnostic PSMA-PET/computed tomography (CT) examinations were performed 1 and 3 h after antecubital injection of 339 MBq/20 nmol ^68Ga-CA028 or 295 MBq/20 nmol ^68Ga-CA030 per patient, respectively. The method for assessing the biodistribution was performed as previously described by Afshar-Oromieh et al. ([Afshar-Oromieh et al., 2015b]). Applying the clinical standard software Syngo (Siemens), which was used to define the VOIs in the PET images, the activity distributions of the source organs was determined. This reference ([Afshar-Oromieh et al., 2015b]) was also used as a standard of reference for ^68Ga-PSMA-617 (Table 3).

Structure (SMILES): O=C([O-])CN1CCN(CC(=O)[O-])CCN(Cc2ccc(C(=O)NCC3CCC(C(=O)NC(Cc4ccc5ccccc5c4)C(=O)NCCCCC(NC(=O)NC(CCC(=O)O)C(=O)O)C(=O)O)CC3)cc2)CCN(CC(=O)[O-])CC1.[68Ga+3] (stereo not drawn) [^68Ga-CA028]
- Specific lysate (internalization) [1]: 41.2 ± 2.7 %IA/10^6 cells
- tumor uptake ([2]; C4-2 tumor, 20 min after injection, 0.05 nmol, 20 MBq): 12.53 ± 0.45 %ID/g
- tumor uptake with blockade ([2]; C4-2 tumor, 1 h p.i., co-injection of non-labeled PSMA-617 2 mg/kg): 1.31 ± 0.34 %ID/g
- kidney uptake ([2]; kidneys, 1 h p.i., 0.05 nmol, 20 MBq): 15.58 ± 2.79 %ID/g
- kidney uptake with blockade ([2]; kidneys, 1 h p.i., co-injection of non-labeled PSMA-617 2 mg/kg): 2.37 ± 0.52 %ID/g
- mSUV Bladder ([3]; 1 h): 6.50
- mSUV Heart ([3]; 1 h): 0.36
- mSUV Kidneys ([3]; 1 h): 0.39
- mSUV Liver ([3]; 1 h): 0.22
- mSUV Muscle ([3]; 1 h): 0.13
- mSUV Tumor ([3]; 1 h): 0.81
- mSUV Bladder ([3]; 2 h): 2.5
- mSUV Heart ([3]; 2 h): 0.13
- mSUV Kidneys ([3]; 2 h): 0.29
- mSUV Liver ([3]; 2 h): 0.09
- mSUV Muscle ([3]; 2 h): 0.05
- mSUV Tumor ([3]; 2 h): 0.78
- tumor-to-kidney ratio ([3]; mean SUV body weight from dynamic PET, 1 h p.i.): 2.08
- tumor-to-kidney ratio ([3]; mean SUV from PET, 2 h p.i.): 2.69
- SUV mean Bone metastasis ([4]; first listed bone metastasis, 1 h p.i.): 4.5
- SUV mean Bone metastasis ([4]; first listed bone metastasis, 3 h p.i.): 4.1
- SUV mean Lymph node ([4]; first listed lymph node, 1 h p.i.): 13.5
- SUV mean Lymph node ([4]; first listed lymph node, 3 h p.i.): 10.7
- SUV mean Blood pool, mediastinal ([4]; 1 h p.i.): 3.2
- SUV mean Colon ([4]; 1 h p.i.): 4.9
- SUV mean Gluteal muscle ([4]; 1 h p.i.): 0.7
- SUV mean Kidneys ([4]; 1 h p.i.): 13.8
- SUV mean Lacrimal gland ([4]; 1 h p.i.): 7.4
- SUV mean Liver ([4]; 1 h p.i.): 4.3
- SUV mean Lung metastasis ([4]; 1 h p.i.): 5.7
- SUV mean Nasal mucosa ([4]; 1 h p.i.): 2.9
- SUV mean Parotid gland ([4]; 1 h p.i.): 11.0
- SUV mean Proximal small intestine ([4]; 1 h p.i.): 8.4
- SUV mean Spleen ([4]; 1 h p.i.): 5.1
- SUV mean Sublingual gland ([4]; 1 h p.i.): 3.8
- SUV mean Submandibular gland ([4]; 1 h p.i.): 14.4
- SUV mean Blood pool, mediastinal ([4]; 3 h p.i.): 2.9
- SUV mean Colon ([4]; 3 h p.i.): 4.2
- SUV mean Gluteal muscle ([4]; 3 h p.i.): 0.4
- SUV mean Kidneys ([4]; 3 h p.i.): 10.9
- SUV mean Lacrimal gland ([4]; 3 h p.i.): 7.6
- SUV mean Liver ([4]; 3 h p.i.): 1.8
- SUV mean Lung metastasis ([4]; 3 h p.i.): 4.7
- SUV mean Nasal mucosa ([4]; 3 h p.i.): 3.5
- SUV mean Parotid gland ([4]; 3 h p.i.): 8.0
- SUV mean Proximal small intestine ([4]; 3 h p.i.): 10.4
- SUV mean Spleen ([4]; 3 h p.i.): 2.5
- SUV mean Sublingual gland ([4]; 3 h p.i.): 2.8
- SUV mean Submandibular gland ([4]; 3 h p.i.): 8.9
- SUV mean Bone metastasis ([4]; second listed bone metastasis, 1 h p.i.): 6.9
- SUV mean Bone metastasis ([4]; second listed bone metastasis, 3 h p.i.): 5.7
- SUV mean Lymph node ([4]; second listed lymph node, 1 h p.i.): 17.0
- SUV mean Lymph node ([4]; second listed lymph node, 3 h p.i.): 25.4
- SUV mean Bone metastasis ([4]; third listed bone metastasis, 1 h p.i.): 4.6
- SUV mean Bone metastasis ([4]; third listed bone metastasis, 3 h p.i.): 4.4
- SUV mean Lymph node ([4]; third listed lymph node, 1 h p.i.): 5.0
- SUV mean Lymph node ([4]; third listed lymph node, 3 h p.i.): 4.1
